Tests used:
K-RAS G12C = target: T1, K-RAS G12C (Homo sapiens, UniProt P01116, G12C); assay: Compound depletion assay, K-RAS G12C; type: binding; details: G12C protein 20 μM, compound 8 μM, 25° C.
T1 construct: His tag; purchased Stratech
Method in brief: (§1)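 His-tagged K-RAS (20 μM) in 20 mM HEPES pH 7.5, 150 mM NaCl, 1 mM MgCl2 incubated with 8 μM compound (final) at 25 °C with agitation. At 0, 30, 180, 360, 1440 min, samples were acid/acetonitrile-quenched and remaining free compound quantified by LC-MS/MS against propranolol, as percent of time zero.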

K-RAS G12D = target: T2, K-RAS G12D (Homo sapiens, UniProt P01116, G12D); assay: Compound depletion assay, K-RAS G12D; type: binding; details: G12D protein 20 μM, compound 8 μM, 25° C.
T2 construct: His tag; purchased Stratech
Method in brief: as §1

T1 sequence (P01116 1-188 isoform P01116-2 G12C): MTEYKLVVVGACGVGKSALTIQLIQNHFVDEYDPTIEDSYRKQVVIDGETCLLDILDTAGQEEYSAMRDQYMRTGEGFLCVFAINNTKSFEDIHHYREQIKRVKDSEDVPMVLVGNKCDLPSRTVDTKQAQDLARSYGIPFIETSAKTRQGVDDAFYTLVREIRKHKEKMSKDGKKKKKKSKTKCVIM
T2 sequence (P01116 1-188 isoform P01116-2 G12D): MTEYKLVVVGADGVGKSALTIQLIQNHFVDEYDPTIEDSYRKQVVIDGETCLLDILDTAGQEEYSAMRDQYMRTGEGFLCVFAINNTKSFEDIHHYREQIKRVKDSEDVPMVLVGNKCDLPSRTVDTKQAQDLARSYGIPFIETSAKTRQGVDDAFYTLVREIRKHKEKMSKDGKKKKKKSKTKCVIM

30 min Category (compound remaining at timepoint) (K-RAS G12C) | 3 hr Category (compound remaining at timepoint) (K-RAS G12C) | 6 hr Category (compound remaining at timepoint) (K-RAS G12C) | 30 min Category (compound remaining at timepoint) (K-RAS G12D) | 3 hr Category (compound remaining at timepoint) (K-RAS G12D) | 6 hr Category (compound remaining at timepoint) (K-RAS G12D) | 24 hr Category (compound remaining at timepoint) (K-RAS G12C) | 24 hr Category (compound remaining at timepoint) (K-RAS G12D) | SMILES
– | A (≥70% compound remaining at timepoint) | – | – | A (≥70% compound remaining at timepoint) | – | A (≥70% compound remaining at timepoint) | A (≥70% compound remaining at timepoint) | C=CC(=O)N1CCN(c2cc(C(=O)N3CCCc4cccc(C)c43)nc(OC[C@@H]3CCCN3C)n2)CC1 [Example 17, 1-[4-[6-(8-methyl-3,4-dihydro-2H-quinoline-1-carbonyl)-2-[[(2S)-1-methylpyrrolidin-2-yl]methoxy]pyrimidin-4-yl]piperazin-1-yl]prop-2-en-1-one]
C (≤30% compound remaining at timepoint) | C (≤30% compound remaining at timepoint) | C (≤30% compound remaining at timepoint) | A (≥70% compound remaining at timepoint) | A (≥70% compound remaining at timepoint) | A (≥70% compound remaining at timepoint) | – | – | C=CC(=O)N1CCN(c2cc(C(=O)Nc3cc(O)cc4ccccc34)nc(OC[C@@H]3CCCN3CC)n2)C[C@@H]1CC#N [Example 51, 6-[(3S)-3-(cyanomethyl)-4-prop-2-enoyl-piperazin-1-yl]-2-[[(2S)-1-ethylpyrrolidin-2-yl]methoxy]-N-(3-hydroxy-1-naphthyl)pyrimidine-4-carboxamide]
– | A (≥70% compound remaining at timepoint) | – | – | A (≥70% compound remaining at timepoint) | – | A (≥70% compound remaining at timepoint) | A (≥70% compound remaining at timepoint) | C=CC(=O)N1CCN(c2cc(C(=O)Nc3cccc4ccccc34)nc(-c3cnn(C)c3)n2)CC1 [Example 10, 2-(1-methylpyrazol-4-yl)-N-(1-naphthyl)-6-(4-prop-2-enoylpiperazin-1-yl)pyrimidine-4-carboxamide]
C (≤30% compound remaining at timepoint) | C (≤30% compound remaining at timepoint) | C (≤30% compound remaining at timepoint) | A (≥70% compound remaining at timepoint) | A (≥70% compound remaining at timepoint) | A (≥70% compound remaining at timepoint) | – | – | C=CC(=O)N1CCN(c2cc(C(=O)Nc3cc(O)cc4ccccc34)nc(OCC3CCCCN3C)n2)C[C@@H]1CC#N (stereo partly drawn) [Example 48, 6-[(3S)-3-(cyanomethyl)-4-prop-2-enoyl-piperazin-1-yl]-N-(3-hydroxy-1-naphthyl)-2-[(1-methyl-2-piperidyl)methoxy]pyrimidine-4-carboxamide]
– | A (≥70% compound remaining at timepoint) | – | – | A (≥70% compound remaining at timepoint) | – | A (≥70% compound remaining at timepoint) | A (≥70% compound remaining at timepoint) | C=CC(=O)N1CCN(c2cc(C(=O)Nc3ccccc3O)nc(OC[C@@H]3CCCN3C)n2)CC1 [Example 06, N-(2-hydroxyphenyl)-2-[[(2S)-1-methylpyrrolidin-2-yl]methoxy]-6-(4-prop-2-enoylpiperazin-1-yl)pyrimidine-4-carboxamide]
– | A (≥70% compound remaining at timepoint) | – | – | A (≥70% compound remaining at timepoint) | – | A (≥70% compound remaining at timepoint) | A (≥70% compound remaining at timepoint) | C=CC(=O)N1CCN(c2cc(C(=O)NCc3ccccc3)nc(OC[C@@H]3CCCN3C)n2)CC1 [Example 14, N-benzyl-2-[[(2S)-1-methylpyrrolidin-2-yl]methoxy]-6-(4-prop-2-enoylpiperazin-1-yl)pyrimidine-4-carboxamide]

Second part, the compound before the results:

SMILES | 30 min Category (compound remaining at timepoint) (K-RAS G12C) | 3 hr Category (compound remaining at timepoint) (K-RAS G12C) | 6 hr Category (compound remaining at timepoint) (K-RAS G12C) | 30 min Category (compound remaining at timepoint) (K-RAS G12D) | 3 hr Category (compound remaining at timepoint) (K-RAS G12D) | 6 hr Category (compound remaining at timepoint) (K-RAS G12D) | 24 hr Category (compound remaining at timepoint) (K-RAS G12C) | 24 hr Category (compound remaining at timepoint) (K-RAS G12D)
C=CC(=O)N1CCN(c2cc(C(=O)Nc3cc(O)cc4ccccc34)nc(NCc3cnn(C)c3)n2)C[C@@H]1CC#N [Example 36, 6-[(3S)-3-(cyanomethyl)-4-prop-2-enoyl-piperazin-1-yl]-N-(3-hydroxy-1-naphthyl)-2-[(1-methylpyrazol-4-yl)methylamino]pyrimidine-4-carboxamide] | A (≥70% compound remaining at timepoint) | A (≥70% compound remaining at timepoint) | B (30%-70% compound remaining at timepoint) | A (≥70% compound remaining at timepoint) | A (≥70% compound remaining at timepoint) | A (≥70% compound remaining at timepoint) | – | –
C=CC(=O)N1CCN(c2cc(C(=O)Nc3cc(O)cc4ccccc34)nc(OCc3cnn(C)c3)n2)C[C@@H]1CC#N [Example 42, 6-[(3S)-3-(cyanomethyl)-4-prop-2-enoyl-piperazin-1-yl]-N-(3-hydroxy-1-naphthyl)-2-[(1-methylpyrazol-4-yl)methoxy]pyrimidine-4-carboxamide] | B (30%-70% compound remaining at timepoint) | C (≤30% compound remaining at timepoint) | C (≤30% compound remaining at timepoint) | A (≥70% compound remaining at timepoint) | A (≥70% compound remaining at timepoint) | A (≥70% compound remaining at timepoint) | – | –
C=CC(=O)N1CCN(c2cc(C(=O)Nc3cc(O)cc4ccccc34)nc(Cc3ccccc3)n2)C[C@@H]1CC#N [Example 40, 2-benzyl-6-[(3S)-3-(cyanomethyl)-4-prop-2-enoyl-piperazin-1-yl]-N-(3-hydroxy-1-naphthyl)pyrimidine-4-carboxamide] | A (≥70% compound remaining at timepoint) | A (≥70% compound remaining at timepoint) | A (≥70% compound remaining at timepoint) | A (≥70% compound remaining at timepoint) | A (≥70% compound remaining at timepoint) | A (≥70% compound remaining at timepoint) | – | –
C=CC(=O)N1CCN(c2cc(C(=O)Nc3cc(O)cc4ccccc34)nc(NCCN3CCOCC3)n2)C[C@@H]1CC#N [Example 28, 6-[(3S)-3-(cyanomethyl)-4-prop-2-enoyl-piperazin-1-yl]-N-(3-hydroxy-1-naphthyl)-2-(2-morpholinoethylamino)pyrimidine-4-carboxamide] | A (≥70% compound remaining at timepoint) | A (≥70% compound remaining at timepoint) | B (30%-70% compound remaining at timepoint) | A (≥70% compound remaining at timepoint) | A (≥70% compound remaining at timepoint) | A (≥70% compound remaining at timepoint) | – | –
C=CC(=O)N1CCN(c2cc(C(=O)Nc3cc(O)cc4ccccc34)nc(-c3ccccc3)n2)C[C@@H]1CC#N [Example 24, 6-[(3S)-3-(cyanomethyl)-4-prop-2-enoyl-piperazin-1-yl]-N-(3-hydroxy-1-naphthyl)-2-phenyl-pyrimidine-4-carboxamide] | A (≥70% compound remaining at timepoint) | A (≥70% compound remaining at timepoint) | A (≥70% compound remaining at timepoint) | A (≥70% compound remaining at timepoint) | A (≥70% compound remaining at timepoint) | A (≥70% compound remaining at timepoint) | – | –
C=CC(=O)N1CCN(c2cc(C(=O)Nc3cc(O)cc4ccccc34)nc(NCC3CCCN3C)n2)C[C@@H]1CC#N (stereo partly drawn) [Example 45, 6-[(3S)-3-(cyanomethyl)-4-prop-2-enoyl-piperazin-1-yl]-N-(3-hydroxy-1-naphthyl)-2-[(1-methylpyrrolidin-2-yl)methylamino]pyrimidine-4-carboxamide] | B (30%-70% compound remaining at timepoint) | C (≤30% compound remaining at timepoint) | C (≤30% compound remaining at timepoint) | A (≥70% compound remaining at timepoint) | A (≥70% compound remaining at timepoint) | A (≥70% compound remaining at timepoint) | – | –
C=CC(=O)N1CCN(c2cc(C(=O)Nc3cc(O)cc4ccccc34)nc(NCc3ccnn3C)n2)C[C@@H]1CC#N [Example 41, 6-[(3S)-3-(cyanomethyl)-4-prop-2-enoyl-piperazin-1-yl]-N-(3-hydroxy-1-naphthyl)-2-[(2-methylpyrazol-3-yl)methylamino]pyrimidine-4-carboxamide] | A (≥70% compound remaining at timepoint) | B (30%-70% compound remaining at timepoint) | B (30%-70% compound remaining at timepoint) | A (≥70% compound remaining at timepoint) | A (≥70% compound remaining at timepoint) | A (≥70% compound remaining at timepoint) | – | –

— patent US12612387B2, “RAS inhibitors and methods of using the same” (Jazz Pharmaceuticals Ireland Limited, priority 2020, dated 2026)
